Six molecules from patent US4093717A, “Antimicrobial compositions” (University of Mississippi, priority 1975, dated 1978) can be followed below.

Structures are written as SMILES. ≈ marks a conversion by molar mass, not a printed value. Where a name gives a salt, the structure may show the parent alone. Read-outs that look alike come from different tables or passages of the source.

One assay has as its system S. cerevisiae. Nature of the assay: two-fold serial dilution assay (MIC), S. cerevisiae. Particulars: Saccharomyces cerevisiae, read-out: Minimum Inhibitory Concentration, S. cerevisiae. In kind it is cell-based. An excerpt:
(§1) Quantitive assay of antimicrobial activity of the inventive compositions against selected test organisms was made using a two-fold serial dilution in Eugonbroth or Mycophil broth. The concentration of pure alkaloids in the initial dilution tube was 50 mcg/ml. Streptomycin sulfate (Nutrional Biochemical) and amphotericin B (Calbiochem "A" grade) at the same concentrations as above were used as standard antibiotics for comparison with the activities of the alkaloids against bacteria and yeast species, respectively. Cultures used in the serial dilution assay included S. aureus, B. subtilis, M. smegmatis, C. albicans, and S. cerevisiae. Readings were taken after incubation times of 24 hours for all organisms except M. smegmatis, which was read at 72 hours. The concentration mcg/ml of the tube of highest dilution which was free from growth was recorded as the minimal inhibitory concentration in Table 3.

Another assay has as its system C. albicans. Nature of the assay: two-fold serial dilution assay (MIC), C. albicans. In kind it is cell-based, Candida albicans. The conditions noted are these: for MIC: Candida albicans, read-out: Minimum Inhibitory Concentration, C. Albicans.
Excerpt: as §1

The subject of assay [1] is Staphylococcus aureus ATCC 6538. The assay is described as follows: agar well diffusion assay, S. aureus. Particulars: read-out: width of the clear zone of inhibition, S. aureus. In kind it is cell-based. How it is done: (§2) Bacterial test organisms were cultured in Eugonager and Eugonbroth (BBL), and fungi and yeasts were cultured in Mycophil (BBL) agar and broth. Antimicrobial activity was recorded as the width (in millimeters) of the clear zone of inhibition surrounding the agar well.
(§3) Qualitative evaluation of antimicrobial activity of the inventive extracts, fractions, and pure compounds was accomplished using an agar well diffusion assay. As set out hereinbefore, the inventive compositions were tested for activity against the following microorganisms: Staphylococcus aureus ATCC 6538; Escherichia coli ATCC 10536; Mycobacterium smegmatis ATCC 607; Pseudomonas aeruginosa ATCC 15442; Candida albicans ATCC 10321; Saccharomyces cerevisiae ATCC 9763; and Asperigillus niger ATCC 16888. In addition, the compounds of the preferred embodiments were also tested against Bacillus subtilis ATCC 6633. Bacterial test organisms were cultured in Eugonagar and Eugonbroth (BBL), and fungi and yeasts were cultured in Mycophil (BBL) agar and broth.
(§4) Plates for assay were prepared by uniformly seeding sterily, partially cooled, molten agar with dilutions of test organisms grown in broth or suspensions of conidia produced on agar slants (A. niger). The seeded agar medium was dispensed into 100 × 15 mm sterile petri dishes (15 ml per dish). Cylindrical plugs were removed from the solidified agar plates, using a sterile cork borer, to produce wells having a diameter of approximately 11 mm. One hundred microliters of a solution or suspension of an extract, fraction, or pure compound was added to each well. The extracts and fractions were tested as solutions or suspensions in a concentration of 20 mg/ml; pure compounds were tested at 1 mg/ml. When solvents other than water were required to dissolve extracts or compounds, solvent blanks were run against each test organism.
(§5) Plates prepared as described above were incubated as follows: Bacteria were grown at 37° C. for 24 hours, with the exception of M. smegmatis, which grows more slowly and requires incubation at 37° C. for 48 hours, before reading. Fungi or yeast were incubated at 25° C. for 24 hours, before growth was evident.
(§6) Antimicrobial activity was recorded as the width (in mm) of the clear zone of inhibition surrounding the agar well.
(In general: A growth-free zone around the sample is the usual read-out of agar diffusion tests.)

For a further assay, the system named is S. aureus. Nature of the assay: two-fold serial dilution assay (MIC), S. aureus. Particulars: Staphylococcus aureus; 24 hours; read-out: Minimum Inhibitory Concentration, S. aureus. In kind it is cell-based.
Excerpt: as §1

The next assay relates to test organisms. The assay is described as follows: qualitative antimicrobial activity of extracts, fractions and compounds. In kind it is cell-based. The conditions noted are these: text statement on extracts, fractions, compounds.
The test system of a further assay is M. smegmatis. The assay is described as follows: two-fold serial dilution assay (MIC), M. smegmatis. In kind it is cell-based, Mycobacterium smegmatis. Particulars: Mycolicibacterium smegmatis, read-out: Minimum Inhibitory Concentration, M. Smegmatis.
Excerpt: as §1

For another assay, the system named is B. subtilis. The assay is described as follows: two-fold serial dilution assay (MIC), B. subtilis. In kind it is cell-based. Particulars: Bacillus subtilis, read-out: Minimum Inhibitory Concentration, R. Subtilis.
Excerpt: as §1

Another assay concerns Candida albicans. Nature of the assay: agar well diffusion assay, C. albicans. Particulars: read-out: width of the clear zone of inhibition, C. Albicans. In kind it is cell-based. As to the method:
as §2, §3, §4, §5, §6

Assay [2] has as its system Bacillus subtilis ATCC 6633. The assay is described as follows: agar well diffusion assay, B. subtilis. In kind it is cell-based. The conditions noted are these: read-out: width of the clear zone of inhibition, B. subtilis. As to the method: as §2, §3, §4, §5, §6
In assay [3] the test system is Mycobacterium smegmatis ATCC 607. Nature of the assay: agar well diffusion assay, M. smegmatis. In kind it is cell-based. Particulars: Mycolicibacterium smegmatis, read-out: width of the clear zone of inhibition, M. smegmatis. As to the method: as §2, §3, §4, §5, §6
The subject of assay [4] is Saccharomyces cerevisiae ATCC 9763. The assay is described as follows: agar well diffusion assay, S. cerevisiae. In kind it is cell-based. Particulars: read-out: width of the clear zone of inhibition, S. cerevisiae. As to the method:
as §2, §3, §4, §5, §6

The test system of assay [5] is Asperigillus niger ATCC 16888. The assay is described as follows: agar well diffusion assay, A. niger. In kind it is cell-based. Particulars: Aspergillus niger, read-out: width of the clear zone of inhibition, A. niger. How it is done: as §2
as §3, with “broth. […]” for “broth.”
Plates prepared as described above were incubated as follows: Bacteria were grown at 37° C. for 24 hours, with the exception of M. smegmatis, which grows more slowly and requires incubation at 37° C. for 48 hours, before reading. […]
as §6

For assay [6], the system named is S. aureus, B. subtilis, M. smegmatis, C. albicans, and S. cerevisiae. The assay is described as follows: two-fold serial dilution assay, activity overall against bacteria and yeasts. In kind it is cell-based. Particulars: from the data in Table 3.
Excerpt: as §1

The mark [7] stands for this setting: ATCC6538, 37° C., 24 hours, extracts and fractions 20 mg/ml, pure compounds 1 mg/ml, 100 microliters per well.
[8] abbreviates: 25° C., 24 hours, extracts and fractions 20 mg/ml, pure compounds 1 mg/ml, 100 microliters per well.
Where [9] appears, read: ATCC6633, 37° C., 24 hours, pure compounds 1 mg/ml, 100 microliters per well.
Where [10] appears, read: ATCC607, 37° C., 48 hours, extracts and fractions 20 mg/ml, pure compounds 1 mg/ml, 100 microliters per well.
Setting [11] is: ATCC9763, 25° C., 24 hours, pure compounds 1 mg/ml, 100 microliters per well.

Method for test organisms: Qualitative evaluation of antimicrobial activity of the inventive extracts, fractions, and pure compounds was accomplished using an agar well diffusion assay. As set out hereinbefore, the inventive compositions were tested for activity against the following microorganisms: Staphylococcus aureus ATCC 6538; Escherichia coli ATCC 10536; Mycobacterium smegmatis ATCC 607; Pseudomonas aeruginosa ATCC 15442; Candida albicans ATCC 10321; Saccharomyces cerevisiae ATCC 9763; and Asperigillus niger ATCC 16888. […] Bacterial test organisms were cultured in Eugonagar and Eugonbroth (BBL), and fungi and yeasts were cultured in Mycophil (BBL) agar and broth.

Take `C[C@@H]1[C@H](O)[C@@H](C)/C=C/C=C/C=C/C=C/C=C/C=C/C=C/[C@H](O[C@@H]2O[C@H](C)[C@@H](O)[C@H](N)[C@@H]2O)C[C@@H]2O[C@](O)(C[C@@H](O)C[C@@H](O)[C@H](O)CC[C@@H](O)C[C@@H](O)CC(=O)O[C@H]1C)C[C@H](O)[C@H]2C(=O)O` [amphotocericin B, amphotericin B, reference compound]: the MIC with S. cerevisiae (24 h) and in the assay with C. albicans (24 h) was 0.78 µg/mL (≈ 0.844 µM) in each case.

For orientation: zone of inhibition means the extent of the growth-free halo in a diffusion test. On to `COc1cc2cc3c4c(cc(OC)c(OC)c4c2cc1OC)CCN3C` [dehydroglaucine], for which the MIC in the assay on S. cerevisiae (24 h) turned out to be 50 µg/mL (≈ 141 µM); in the assay with S. aureus it was 25 µg/mL (≈ 70.7 µM); with M. smegmatis (72 h), 25 µg/mL (≈ 70.7 µM); in the assay on B. subtilis (24 h), 25 µg/mL (≈ 70.7 µM); in the assay on C. albicans (24 h), 25 µg/mL (≈ 70.7 µM). The zone of inhibition at 1000 µg/mL in [1] (ATCC6538, 24 h) was determined as 4 mm; in the assay with Candida albicans (24 h), 6 mm; in assay [2] (ATCC6633, 24 h) it was 7 mm; in assay [3] (ATCC607, 48 h), 8 mm; in [4] (ATCC9763, 24 h), 6 mm. Also, the “antimicrobial activity (in words)” value in the assay on test organisms is listed as “exhibited antimicrobial activity”; with test organisms (listed as Dehydroglaucine), “exhibit all of the antimicrobial activity in that Fraction”.

For `C[n+]1ccc2cc3c(c4c2c1C(=O)c1ccccc1-4)OCO3` [liriodenine methiodide], the MIC with S. cerevisiae (24 hours) was 3.1 µg/mL; in the assay with S. aureus, 6.2 µg/mL; in the assay with M. smegmatis (72 hours), 3.1 µg/mL; in the assay on B. subtilis (24 hours), 3.1 µg/mL; in the assay on C. albicans (24 hours) it was 0.78 µg/mL. The zone of inhibition at 1000 µg/mL in assay [1] (setting [7]) was determined as 6 mm; in assay [5] (ATCC16888, 25° C., 24 hours, extracts and fractions 20 mg/ml, pure compounds 1 mg/ml, 100 microliters per well) it was 4 mm; in the assay on Candida albicans (setting [8]), 17 mm; in assay [2] (setting [9]), 6 mm; in [3] (setting [10]), 14 mm; in assay [4] (setting [11]), 15 mm. Moreover, the “in vitro activity compared with standard antibiotics or other alkaloids” value in assay [6] was “in vitro activity comparable to that of streptomycin sulfate and amphotericin B”.

For `O=C1c2ccccc2-c2c3c(cc4ccnc1c24)OCO3` [liriodenine], the MIC came out at 6.2 µg/mL (≈ 22.5 µM) in the assay with S. cerevisiae (24 h); 3.1 µg/mL (≈ 11.3 µM) in the assay with S. aureus; 1.56 µg/mL (≈ 5.67 µM) with M. smegmatis (72 h); 0.39 µg/mL (≈ 1.42 µM) with B. subtilis (24 h); 6.2 µg/mL (≈ 22.5 µM) in the assay with C. albicans (24 h). Further, the zone of inhibition at 1000 µg/mL worked out at 5 mm in assay [1] (ATCC6538, 24 h); 11 mm in assay [5] (ATCC16888, 24 h); 3 mm in the assay on Candida albicans (24 h); 8 mm in assay [2] (ATCC6633, 24 h); 11 mm in assay [3] (ATCC607, 48 h); 5 mm in [4] (ATCC9763, 24 h). Further, the entries for the “antimicrobial activity (in words)” value in the assay with test organisms and in the assay on test organisms (listed as Liriodenine) were “exhibited antimicrobial activity” and “contained all of the antimicrobial activity in this fraction”, respectively. Also, the “in vitro activity compared with standard antibiotics or other alkaloids” value in [6] is “in vitro activity comparable to that of streptomycin sulfate and amphotericin B”.

Take `COc1cc2c(cc1OC)-c1c(OC)c(OC)cc3cc[n+](C)c(c13)C2=O` [oxoglaucine methiodide]: the MIC amounted to 25 µg/mL in the assay on S. cerevisiae (24 hours); 25 µg/mL in the assay on S. aureus; 25 µg/mL with M. smegmatis (72 hours); 25 µg/mL in the assay with B. subtilis (24 hours); 1.56 µg/mL in the assay on C. albicans (24 hours). Moreover, the zone of inhibition at 1000 µg/mL in assay [1] (setting [7]) was determined as 9 mm; in the assay with Candida albicans (setting [8]), 10 mm; in assay [2] (setting [9]), 9 mm; in assay [3] (setting [10]) it was 10 mm; in assay [4] (setting [11]), 11 mm. Besides, the “activity against C. albicans (in words)” value in the assay with C. albicans (from the data in Table 3) was “particularly active against C. albicans”.

Consider `[H]/N=C(/N)N[C@H]1[C@H](O)[C@@H](O)[C@H](O[C@@H]2O[C@@H](C)[C@](O)(C=O)[C@H]2O[C@@H]2O[C@@H](CO)[C@H](O)[C@@H](O)[C@@H]2NC)[C@@H](N/C(N)=N\[H])[C@@H]1O` [streptomycin sulfate, reference compound], for which the figures for the MIC in the assay with S. aureus, in the assay with M. smegmatis (72 h) and in the assay on B. subtilis (24 h) were 3.1 µg/mL, 0.78 µg/mL and 1.56 µg/mL, respectively.
